# Measurements as given in the METLIN SMRT retention time set (Domingo-Almenara et al. 2019).
# Test: gradient 5% acetonitrile 3 min, to 50% in 2 min, to 85% in 15 min, held 3 min, 100 µL/min
# Details: column: Zorbax Extend-C18 2.1 x 50 mm; eluents: water / acetonitrile, 0.1% formic acid
# In short: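 The system's dead and dwell volumes were 40 μL and 900 μL, with a Zorbax Extend-C18 column (2.1 × 50 mm, 1.8 μm) run at 100 μL/min in water and acetonitrile containing 0.1% formic acid each. Pure standards were analyzed in mixtures of ~100 molecules by HPLC–quadrupole time-of-flight mass spectrometry in positive and negative ionization mode. Retention time was assigned from computationally picked, manually inspected adduct peaks.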
row,SMILES,RP-LC retention time [s]
1,CCn1c(CCNC(=O)c2ccc(F)c(Cl)c2)nc2cccnc21,676
2,Cc1c(-c2ccnc(N3CCN(C)CC3)n2)cnc2nc(-c3ccccc3)nn12,640
3,CN1C(=O)c2cc(C(=O)NCc3cccc(Cl)c3)nn2CC1(C)C(=O)NCc1ccccc1 (centres undefined),793
4,CC(C)NC(=O)c1ccc(Nc2c(-c3ccc(Cl)cc3)nc3cnccn23)cc1,764
5,COc1ccc(Nc2c(C(=O)N3CCCCC3C)cnc3nc(C)ccc23)cc1OC (centres undefined),598
6,CCOc1ccc(CNC(=O)C2CCCN(c3ccc(=O)n(-c4ccc(CC)cc4)n3)C2)cc1 (centres undefined),940
7,Cc1ccccc1CNC(=O)Cn1cccc1-c1nnc(C2CCC2)o1,920
8,COc1ccc2[nH]c(C(=O)N3CCN(C(=O)Cc4cccs4)CC3)cc2c1,758
9,CCC(C)NC(=O)Cn1nc2nc(Nc3ccc(F)cc3)ccn2c1=O (centres undefined),684
10,COc1ncccc1C(=O)Nc1onc2c1CSC2,642
11,CSc1ccc(-c2nc3ccc(C)cn3c2Nc2ccc3c(c2)OCCO3)cc1,716
12,COc1ccc(Cl)cc1N1CC(c2nc3ccccc3n2CC(=O)N2CCOCC2)CC1=O (centres undefined),662
13,CC(C)OCCCNC(=O)c1ccc2nc(Cc3ccccc3)oc2c1,884
14,O=C(c1ccc2ccnc(N3CCN(c4ccc(F)cc4)CC3)c2c1)N1CCCCCC1,816
15,Cc1ccc2c(c1)N(S(C)(=O)=O)CCC(C(=O)Nc1ccc(C(C)C)cc1)O2 (centres undefined),1130
16,Nc1ccc(S(=O)(=O)N2CCCCC2c2cccnc2)cc1 (centres undefined),555
17,CCc1ccc(NC(=O)C2CC(=O)N(CCc3c[nH]c4ccc(F)cc34)C2)cc1 (centres undefined),873
18,CC(C(=O)NCc1nn(C)c2ccccc12)c1ccccc1 (centres undefined),792
19,Cc1nn(CC(=O)NCCCN2CCCC2=O)c(=O)c2nn(-c3ccccc3)c(C)c12,642
20,Cc1cccc(CNC(=O)C2CCN(S(=O)(=O)c3c(C)[nH]c(C)c3C(=O)N3CCCC3)CC2)c1,695

row,SMILES,RP-LC retention time [s]
1,CC1(C(=O)NC2CCCC2)CN(S(=O)(=O)c2ccccc2)CC(=O)N1c1ccc(Cl)cc1 (centres undefined),950
2,CNC(=O)[C@@H]1CN(C(=O)CCc2nc3ccccc3s2)C[C@H]1c1n[nH]c(C)n1,607
3,CCc1nc2cc(-c3noc(-c4cccc(C#N)c4)n3)ccc2o1,1070
4,COc1cccc(NC(=O)N2CCC(c3cc(N)on3)CC2)c1,653
5,CC(C)CNC(=O)c1cc2c(s1)N(CC1CC1)CCCC2,1040
6,COC(=O)C1CCC(=O)N1C(c1ccc(OC)cc1)c1cc(OC)c(OC)c(OC)c1 (centres undefined),753
7,O=C(NC1CCN(c2cc(-c3cccs3)[nH]n2)C1)c1ccccc1 (centres undefined),695
8,Cc1sc(NC(=O)c2ccccc2)c(C(Nc2ccccn2)c2cccs2)c1C (centres undefined),746
9,CN(CCc1noc(-c2ccccc2)n1)C(=O)NCCc1ccccc1,896
10,CCCNS(=O)(=O)c1cc(-c2nnc(-c3ccc(OC)c(OC)c3)o2)ccc1C,901
11,CCn1c(=O)c(C(=O)NC2CC2)nc2cc(C)c(C)cc21,887
12,COCCn1c(-c2ccccc2)cnc1SCC(=O)Nc1ccccc1,669
13,CC(=O)N1CCN(C(=O)CN2C(=O)C3CCCCN3c3ccc(S(=O)(=O)N(C)C)cc32)CC1 (centres undefined),680
14,COc1ccc(N2CCN(c3cc(SCC(=O)NCc4ccc(SC)cc4)ncn3)CC2)cc1,897
15,CC1CCCCN1CCNC(=O)c1ccc2c(c1)nc1n2CCN(Cc2ccccc2)C1=O (centres undefined),601
16,Cc1ccccc1-c1cc(C(=O)N2CCC(NC(=O)C3CCC(C)CC3)CC2)[nH]n1 (centres undefined),811
17,Cc1cc(C)cc(C(=O)N2CC=C(C(=O)NC3CC3)CC2)c1,755
18,CN1C(=O)[C@H]2CN(Cc3ccc(C#N)cc3)C[C@H]2C1=O,574
19,Cc1nccn1CC(=O)N1CCCC(OCc2nc(C(C)C)no2)C1 (centres undefined),596
20,NC(=O)C1CCN(C(=O)CCn2cnc3cc(S(=O)(=O)N4CCCC4)ccc32)CC1,577

row,SMILES,RP-LC retention time [s]
1,CCn1c(CNC(=O)C2CCC2)nc2c1CN(S(=O)(=O)c1ccc(F)cc1)CC2,644
2,CCn1nccc1-c1cccc(-c2noc(-c3ccc(C#N)cc3)n2)c1,1140
3,CCOc1ccccc1C(=O)N1CCCC1c1nc(-c2ccccc2OC)no1 (centres undefined),886
4,Cc1nncn1C1CN(C(=O)c2ccc(OC(F)(F)F)cc2)C1,654
5,CCOc1ccccc1NC(=O)N1CCCC(C)(C(=O)NCc2ccc(F)cc2)C1 (centres undefined),983
6,COc1cccc(NC(=O)Cn2c(=O)c3cc(C4CC4)nn3c3ncccc32)c1,763
7,Cc1cccc(NC(=O)Cn2cnc3nc(N4CCC(C(=O)NC5CC5)CC4)sc3c2=O)c1C,693
8,O=C(NC1CCCC1)c1nc(-c2ccnc(N3CCCCC3)c2)no1,763
9,Cn1c2ccccc2c2cnn(CC(=O)N3CCN(c4ccccn4)CC3)c(=O)c21,943
10,O=C(NC1CCCCC1)c1nc(Cn2c(=O)oc3ccc(Cl)cc32)no1,981
11,CSc1ccc(NC(=O)C2CCN(C(=O)c3ncn4c3COC(c3ccc(F)cc3)C4)CC2)cc1 (centres undefined),864
12,CCN(CC)S(=O)(=O)c1cc(-c2nnc(-c3ccc(OC)c(OC)c3)o2)ccc1Cl,1010
13,Cc1cc(N2CCN(S(=O)(=O)c3ccc(F)cc3F)CC2)nc(NC2CCCCC2)n1,805
14,O=C(O)c1cc2cc(Cl)ccc2[nH]1,740
15,c1cncc(-c2nc3ccccc3s2)c1,873
16,CCOc1ccccc1NC(=O)N1CCC2(CC1)NC(=O)c1ccccc1O2,810
17,CCCCn1cc(S(=O)(=O)Nc2ccc(F)c(C)c2)c2cccnc21,995
18,COc1ccc(N2CCN(C3=NS(=O)(=O)c4ccccc43)CC2)cc1,780
19,CCOC(=O)c1c(C)[nH]c(C)c1S(=O)(=O)N1CCC(C(=O)Nc2ccc3c(c2)OCO3)CC1,774

# Other lines, results leading:
row,RP-LC retention time [s],SMILES
1,716,O=C(c1cn2c(n1)COCC2)N(Cc1ccccc1)Cc1ccco1
2,865,O=C1CC(c2nc(-c3ccccc3F)no2)CN1c1ccc2c(c1)OCO2 (centres undefined)
3,815,O=C1NCCCCCN(C(=O)Nc2ccccc2F)[C@H]2CCCC[C@@H]12
4,729,Cc1[nH]nc(-c2ccc(S(=O)(=O)NC(C)C)o2)c1C
5,683,CCOC(=O)CCC(=O)Nc1nnc(-c2cc(C)oc2C)o1
6,761,CCN1CCn2cc(S(=O)(=O)NCc3ccc(C)c(C)c3)cc2C1=O
7,834,COC(=O)CNC(=O)N1c2ccccc2CC1c1nc(C(C)C)no1 (centres undefined)
8,564,COC[C@@H]1CN(c2cnccn2)C[C@H]1C(=O)NCCn1cccn1
9,649,CNC(=O)C1CCCN(c2nc3ncn(CC(=O)Nc4ccccc4C(=O)OC)c(=O)c3s2)C1 (centres undefined)
10,660,COc1cccc(CNC(=O)c2nsc(C(=O)N3CCN(c4ccccn4)CC3)c2N)c1
11,895,O=C(NC1CCCC1)C1CCCN(c2nc3ccsc3c(=O)n2Cc2ccccc2)C1 (centres undefined)
12,877,COCCN1C(=O)c2ccccc2C(C(=O)NCc2ccccc2F)C12CCCCC2 (centres undefined)
13,978,O=C(c1ccccc1)N1CCCC1c1nc(-c2ccccc2Cl)no1 (centres undefined)
14,878,CCc1nnc(-c2ccc3ccn(CC(=O)N4CCN(c5ccc(F)cc5)CC4)c3c2)o1
15,769,CC1=C(c2ccc(C(C)C)cc2)S(=O)(=O)N=C1N1CCC(NC(=O)c2ccoc2)CC1
16,654,O=C(NCc1ccccc1F)C1CCN(c2cnc(N3CCCC3)nc2)CC1
17,686,CCOCCCNC(=O)c1ncoc1-c1ccccc1C(=O)N1CCCC1
18,868,Cc1c(S(=O)(=O)N2CCC(C(=O)NCc3csc(-c4ccccc4)n3)CC2)cnn1C(F)F
19,686,Cc1ccc(CNC(=O)c2cn3ccncc3n2)cc1
20,1080,CCN1C(=O)c2cc(S(=O)(=O)Nc3ccc(C)cc3C)ccc2Oc2cccnc21
21,846,CCN1C(=O)CCc2cc(NS(=O)(=O)Cc3cccc(Cl)c3)ccc21
22,986,Cc1nnc(-c2cccc(Cl)c2)nc1N1CCC(C)CC1
23,648,O=C(c1ccc(/C=C/c2n[nH]c3ccccc23)cc1)N1CCNCC1
24,840,Cn1c(=O)c(SCC(=O)NCCCc2ccccc2)nc2ccccc21
25,941,Cc1nn(-c2cc(N3CCCCC3)ncn2)c(C)c1CCC(=O)NC(C)CCc1ccco1 (centres undefined)
26,1010,COc1ccccc1CC(=O)N1CCCn2nc(-c3ccc(Cl)cc3)cc2C1
27,1010,CCOc1ccc(-n2c(=O)c3sccc3n(Cc3nc(-c4ccccc4)no3)c2=O)cc1
28,578,COc1ccc(NC(=O)CN2CCC(C(=O)NCc3ccc(F)cc3F)CC2)c(OC)c1
29,854,COc1cccc(NC(=O)NC2CCN(c3ccc(C)c(C)c3)C2=O)c1 (centres undefined)
30,688,CCCNC(=O)c1cc2n(n1)CC(C)(C(=O)NCc1ccc(F)cc1)N(C)C2=O (centres undefined)
